Series [1] deals with HeLa cells. The following applies: cited from earlier work.
For series [2], the system named is HeLa cells. Description: Cell antiproliferative activity assay (CCK8). The series is classed as cell-based, human. The following applies: Homo sapiens; for IC50: HeLa; for inhibition at 0.25 µM: 250 nM; for inhibition at 0.5 µM: 500 nM; for inhibition at 1 µM: 1000 nM; for inhibition at 2 µM: 2000 nM; for inhibition at 4 µM: 4000 nM; for inhibition at 8 µM: 8000 nM; for inhibition at 16 µM: 16000 nM. On the procedure:
Cell antiproliferative activity was evaluated by the Cell Counting Kit-8 (CCK8, DOJINDO, Japan) assay. The cells were seeded at a density of 2,000 cells per well into 96-well microplate in 100 μl of growth medium. Cells were incubated at 37°C and 5% CO2 overnight. The next day, 100 μl per well of diluted inhibitor in growth medium was added with the final concentration from 0.1 nM to 100 μM. The cells were treated with DMSO as control. A series of dilutions are made in 0.1% DMSO in assay medium so that the final concentration of DMSO is 0.1% in all of treatments. Cells were incubated at 37°C and 5% CO2 for 48 h. Then, 10 μl of CCK8 was added to each well. The plates were incubated at 37°C for 2 h; after that, the plates were recorded by measuring absorbance at 450 nm with the reference wavelength of 630 nm using an EnVision Multilabel Reader (PerkinElmer). The IC50 values were calculated using GraphPad Prism 6.0 software and determined by the concentration causing a half-maximal percent activity. All assays were conducted with three parallel samples and three repetitions.

In series [3] the test system is HeLa cells. Description: Flow cytometry detection for cell apoptosis (Annexin V/PI). The series is classed as cell-based, human. Conditions: single samples; for Q3: FITC-A+ , PE-A- Freq. of Parent / Q2: FITC-A+ , PE-A+ Freq. of Parent: 72 h, Annexin V/PI. On the procedure:
Cell-apoptosis analysis was carried out by flow cytometry using the Annexin V/PI apoptosis kit (Solarbio, China) according to the manufacturer’s manual. Briefly, HeLa (5 × 10^4/well) cells were seeded in 12-well plates for 24 h and then treated with 0.1% DMSO (as control) or various concentrations of compounds 4d, 4k, and 4l for 72 h, respectively. Cells were harvested, washed with PBS, and then incubated with 100 μl of 1 × Annexin V binding buffer containing 1 μl FITC Annexin V for 10 min at RT in the dark. Cells were incubated for another 5 min at room temperature (RT) in the dark after 1 μl PI was added. PBS (200 µl) was added to each tube for flow cytometry analysis (BriCyte E6). The percentages of apoptotic cells were analyzed using FlowJo soft.
A general note: In flow cytometry, cells or beads pass a laser one at a time.

[4] abbreviates: amidino 2-substituted benzimidazoles linked to 1,2,3-triazoles, ref Raic-Malic et al., read-out: IC50 antiproliferation activities against HeLa cells.
[5] abbreviates: chromenocarbazole tethered 1,2,3-triazoles, ref Chavan et al., 2019, read-out: IC50 antiproliferative activity in HeLa cells.
[6] abbreviates: 48 h, HeLa cells, CCK8, 48 h, mean ± SD, n = 3, read-out: IC50 (μM) HeLa.
[7] abbreviates: HELA 2000cells/well, supplement DataSheet2, Repeat1, read-out: IC50 Repeat1.
Where [8] appears, read: HELA 2000cells/well, supplement DataSheet2, Repeat 2, read-out: IC50 Repeat 2.
Where [9] appears, read: HELA 2000cells/well, supplement DataSheet2, mean of two repeats ± SD, read-out: IC50 mean±SD.
Where [10] appears, read: HELA 2000cells/well, Repeat1, read-out: Inhibition (%) Repeat1.
Where [11] appears, read: HELA 2000cells/well, Repeat2, read-out: Inhibition (%) Repeat2.

This is an account of results in article PMC8802806, “Synthesis and Antitumor Activity of Erlotinib Derivatives Linked With 1,2,3-Triazole” (Frontiers in Pharmacology, 2022).

As a reminder, the melting point is the temperature, or range, at which the solid turns liquid. As a reminder, the inhibition is the share of the control response that was lost under treatment.

“And” between values parts separate entries of the source, which are not always exact repeats. Identical values can stand only once. Like-named read-outs stand apart in the source and are kept apart here.

For the molecule `CC(C)NC(=N)c1ccc2[nH]c(-c3ccc(OCc4cn(Cc5ccc(Cl)cc5)nn4)cc3)nc2c1` [10c], the IC50 in the series on HeLa cells [1] (setting [4]) was 17.5 µM.

For the molecule `N#CC1=C(N)Oc2c(ccc3[nH]c4ccccc4c23)C12C(=O)N(Cc1cn(Cc3ccc(Cl)cc3)nn1)c1ccc(Br)cc12` (stereo not drawn) [6s], the IC50 in the series on HeLa cells [1] (setting [5]) was 3.83 µM.

For the molecule `N#CC1=C(N)Oc2c(ccc3[nH]c4ccccc4c23)C12C(=O)N(Cc1cn(Cc3ccc(C(F)(F)F)cc3)nn1)c1ccccc12` (stereo not drawn) [6g], the IC50 in the series with HeLa cells [1] (setting [5]) is 3.54 µM.

The molecule `COCCOc1cc2ncnc(Nc3cccc(-c4cn(-c5ccccc5Cl)nn4)c3)c2cc1OCCOC` [Compound 4h, [6,7-Bis-(2-methoxy-ethoxy)-quinazolin-4-yl]-{3-[1-(2-chloro-phenyl)-1H-[1,2,3]triazol-4-yl]-phenyl}-amine] yielded a melting point of 131 to 134 °C. Besides, the IC50 in the series on HeLa cells [2] (setting [6]) turned out to be 8.85 ± 0.56 µM. For the same molecule, the IC50 in the series with HeLa cells [2] (setting [7]) came out at 8.32 µM. In addition, the IC50 with HeLa cells [2] (setting [8]) came out at 9.44 µM. Besides, the IC50 in the series with HeLa cells [2] (setting [9]) worked out at 8.86 ± 0.559 µM. In addition, in the series on HeLa cells [2] (setting [10]), the inhibition at 0.25 µM stood at 0%, the inhibition at 0.5 µM amounted to 7.08%, the inhibition at 1 µM turned out to be 7.26% and the inhibition at 2 µM stood at 13.4%. Further, in the series with HeLa cells [2] (setting [10]), the inhibition at 4 µM was determined as 31.3%, the inhibition at 8 µM stood at 54.3% and the inhibition at 16 µM amounted to 63.2%. In addition, in the series with HeLa cells [2] (setting [11]), the inhibition at 0.25 µM was 1.75%, the inhibition at 0.5 µM turned out to be 3.15%, the inhibition at 1 µM turned out to be 6.12% and the inhibition at 2 µM came to 11.2%. For the same molecule, in the series on HeLa cells [2] (setting [11]), the inhibition at 4 µM is 29.2%, the inhibition at 8 µM is 51.4% and the inhibition at 16 µM was 59.4%.

As for `COCCOc1cc2ncnc(Nc3cccc(-c4cn(Cc5ccccc5I)nn4)c3)c2cc1OCCOC` [Compound 4b, [6,7-Bis-(2-methoxy-ethoxy)-quinazolin-4-yl]-{3-[1-(2-iodo-benzyl)-1H-[1,2,3]triazol-4-yl]-phenyl}-amine], the melting point lay within 93 to 96 °C. Moreover, the IC50 with HeLa cells [2] (setting [6]) is 11.5 ± 1.69 µM. Besides, the IC50 with HeLa cells [2] (setting [7]) worked out at 9.72 µM. Moreover, the IC50 in the series with HeLa cells [2] (setting [8]) came to 13.1 µM. Further, the IC50 with HeLa cells [2] (setting [9]) was 11.5 ± 1.69 µM. Also, in the series with HeLa cells [2] (setting [10]), the inhibition at 0.25 µM worked out at 8.56%, the inhibition at 0.5 µM came to 12.5%, the inhibition at 1 µM stood at 13.3% and the inhibition at 2 µM came to 17.6%. In the series on HeLa cells [2] (setting [10]), the inhibition at 4 µM stood at 37.8%, the inhibition at 8 µM was 52% and the inhibition at 16 µM was found to be 54.8%. Further, in the series on HeLa cells [2] (setting [11]), the inhibition at 0.25 µM was determined as 0%, the inhibition at 0.5 µM was determined as 0%, the inhibition at 1 µM came to 3.42% and the inhibition at 2 µM turned out to be 7.96%. In addition, in the series on HeLa cells [2] (setting [11]), the inhibition at 4 µM is 28.2%, the inhibition at 8 µM was found to be 40.8% and the inhibition at 16 µM stood at 51.1%.

Turning to `CCOc1cccc(-n2cc(-c3cccc(Nc4ncnc5cc(OCCOC)c(OCCOC)cc45)c3)nn2)c1` [Compound 4n, [6,7-Bis-(2-methoxy-ethoxy)-quinazolin-4-yl]-{3-[1-(3-ethoxy-phenyl)-1H-[1,2,3]triazol-4-yl]-phenyl}-amine], the melting point was in the range of 110 to 114 °C. Besides, in the series with HeLa cells [2] (setting [6]), the IC50 was 8.21 ± 1.05 µM. For the same molecule, the IC50 in the series with HeLa cells [2] (setting [7]) came to 7.21 µM. Further, the IC50 with HeLa cells [2] (setting [8]) was 9.31 µM. In addition, the IC50 in the series on HeLa cells [2] (setting [9]) turned out to be 8.21 ± 1.05 µM. Also, in the series on HeLa cells [2] (setting [10]), the inhibition at 0.25 µM is 0%, the inhibition at 0.5 µM was 4.33%, the inhibition at 1 µM is 7.26% and the inhibition at 2 µM is 12.8%. In the series on HeLa cells [2] (setting [10]), the inhibition at 4 µM came out at 31.2%, the inhibition at 8 µM was determined as 51.9% and the inhibition at 16 µM stood at 77.1%. In the series with HeLa cells [2] (setting [11]), the inhibition at 0.25 µM was found to be 2.69%, the inhibition at 0.5 µM amounted to 4.33%, the inhibition at 1 µM is 6.45% and the inhibition at 2 µM is 10.8%. In the series with HeLa cells [2] (setting [11]), the inhibition at 4 µM worked out at 18.5%, the inhibition at 8 µM was determined as 45.5% and the inhibition at 16 µM stood at 69.6%. The “Q3: FITC-A+ , PE-A- Freq. of Parent” value with HeLa cells [3] (3 μM) was 0.75% and 1.15% and 1.24%. In the series with HeLa cells [3] (6 μM), the “Q2: FITC-A+ , PE-A+ Freq. of Parent” value was determined as 21.9%; the “Q3: FITC-A+ , PE-A- Freq. of Parent” value is 5.30% and 1.36% and 0.76%; the “Q2+Q3 (as fraction)” value is 0.272 and 0.3116 and 0.2626. Moreover, in the series on HeLa cells [3] (12 μM), the “Q2: FITC-A+ , PE-A+ Freq. of Parent” value was determined as 61.9%; the “Q3: FITC-A+ , PE-A- Freq. of Parent” value is 2.53% and 1.19% and 1.05%; the “Q2+Q3 (as fraction)” value is 0.6443 and 0.5879 and 0.6565.

As for `COCCOc1cc2ncnc(Nc3cccc(-c4cn(-c5ccc(F)cc5)nn4)c3)c2cc1OCCOC` [Compound 4g, [6,7-Bis-(2-methoxy-ethoxy)-quinazolin-4-yl]-{3-[1-(4-fluoro-phenyl)-1H-[1,2,3]triazol-4-yl]-phenyl}-amine], the melting point fell in the range of 88 to 91 °C. Besides, the IC50 in the series with HeLa cells [2] (setting [6]) was 9.05 ± 0.53 µM. The IC50 in the series with HeLa cells [2] (setting [7]) came to 8.57 µM. For the same molecule, in the series on HeLa cells [2] (setting [8]), the IC50 amounted to 9.64 µM. In addition, in the series with HeLa cells [2] (setting [9]), the IC50 came out at 9.06 ± 0.531 µM. Besides, in the series with HeLa cells [2] (setting [10]), the inhibition at 0.25 µM came out at 0%, the inhibition at 0.5 µM was 0.279%, the inhibition at 1 µM was determined as 2.88% and the inhibition at 2 µM is 20.6%. Besides, in the series on HeLa cells [2] (setting [10]), the inhibition at 4 µM came out at 37.5%, the inhibition at 8 µM came out at 51.1% and the inhibition at 16 µM stood at 59.4%. For the same molecule, in the series with HeLa cells [2] (setting [11]), the inhibition at 0.25 µM was determined as 2.88%, the inhibition at 0.5 µM was 5.02%, the inhibition at 1 µM was found to be 5.02% and the inhibition at 2 µM came to 17.7%. Besides, in the series with HeLa cells [2] (setting [11]), the inhibition at 4 µM stood at 38.5%, the inhibition at 8 µM worked out at 50.1% and the inhibition at 16 µM was found to be 54.7%.

On to `COc1ccc2c(-n3cc(-c4cc(OC)c(OC)c(OC)c4)nn3)c(C(=O)Nc3ccccc3)oc2c1` [17 g, 6-methoxy-N-phenyl-3-[4-(3,4,5-trimethoxyphenyl)-1H-1,2,3-triazol-1-yl] benzofuran-2 carboxamide], for which the IC50 with HeLa cells [1] (ref Qi et al., 2020, read-out: IC50 antiproliferative activities against HeLa cells) is 0.73 ± 0.67 µM.

On to `Cc1ccc(Cn2cc(CN3C(=O)C4(C(C#N)=C(N)Oc5c4ccc4[nH]c6ccccc6c54)c4cc(F)ccc43)nn2)cc1` (stereo not drawn) [6u], for which the IC50 in the series on HeLa cells [1] (setting [5]) was 3.35 µM.

`c1ccc(Cn2cc(COc3ccc(-c4nc5cc(C6=NCCN6)ccc5[nH]4)cc3)nn2)cc1` [11f]: the IC50 with HeLa cells [1] (setting [4]) is 6.63 µM.

Regarding `Cc1ccc(Cn2cc(CN3C(=O)C4(C(C#N)=C(N)Oc5c4ccc4[nH]c6ccccc6c54)c4ccccc43)nn2)cc1` (stereo not drawn) [6b], in the series with HeLa cells [1] (setting [5]), the IC50 is 4.05 µM.
